Reference: US20090149482A1, “STEREOCHEMICALLY DEFINED DIPEPTIDE ESTERS OF ANTIVIRAL AGENTS FOR ENHANCED OCULAR TREATMENT” (priority 2001, published 2009)
“And” between values parts separate entries of the source, which are not always exact repeats. Equal entries are not always repeated. Where two headings read alike, the source gives them in different places.

Legend:
[1] = test system: rabbit corneal cell line (SIRC); conditions: SIRC cells
HSV-1 strain McKrae = assay: HSV-1 epithelial keratitis rabbit model, topical treatment, SLE scores; assay type: in vivo; conditions: 14 days post-inoculation, 1% topical 5 times per day
Excerpt: (§1) The rabbit eye is an excellent model to study acute HSV-1 epithelial keratitis. Also, spontaneous and induced ocular HSV-1 shedding and corneal epithelial disease in rabbits has been used as a model of human ocular HSV-1 reactivation and recurrence. HSV-1 strain McKrae was used in studies for epithelial keratitis. HSV-1 strain RE was used for studies of HSV stromal keratitis.
i) Epithelial Keratitis: A group of ten rabbits was used to study each compound. Both eyes of all rabbits were used. An aqueous vehicle (like a placebo) and one positive control were obtained using 1% TFT (Viroptic®). Each compound at 1% concentration (TFT=33 mM, Gly-Gly-ACV=26.6 mM, Val-Val-ACV=18.6 mM) were applied (50 μl) topically 5 times per day every two hours starting at 8:00 a.m. and ending at 4:00 p.m. The treatment began on the 3rd post-inoculation day and continued for 5 consecutive days. Slit-lamp examinations were performed once every day for 8 days and thereafter once every other day until lesions resolved.

HSV-1 strain RE = assay: HSV-1 stromal keratitis rabbit model, topical treatment, SLE scores; assay type: in vivo; conditions: 13 days post-inoculation, 1% topical
Excerpt: as §1
ii) Stromal Keratitis: The experiment is similar to the part (i) experiment as far as the treatment cycles for all experimental drugs (TFT and Val-Val-ACV) are concerned. The effect of Val-Val-ACV on stromal keratitis induced by intrastromal injection with a high (20 μl of a 1×10^7 pfu/ml stock) titer of HSV-1RE strain was compared to that of TFT. Each compound at 1% concentration (TFT=33 mM, Val-Val-ACV=18.6 mM) was applied topically. The same scoring as noted in Table 4 is used for stromal keratitis. Emphasis is placed on the stromal edema and visibility into the aqueous chamber and the visualization of the pupil and iris.
A group of ten rabbits were used to study each compound. Both eyes of all rabbits were treated. Three to four groups of 10 rabbits are used in one experiment. This includes vehicle control, TFT, and the newly synthesized antiviral Val-Val-ACV.

O=c1[nH]c(=O)n([C@H]2C[C@H](O)[C@@H](CO)O2)cc1C(F)(F)F [TFT, trifluorothymidine, reference compound] showed a percent survival ([1]; 0.025 mM) of 86.98%, a percent survival ([1]; 0.1 mM) of 80.48% and a percent survival ([1]; 0.5 mM) of 64.76%. The percent survival ([1]; 1 mM) was 54.35%, the “% viable cells” value ([1]; 5 mM) was 0.01% and 0.01±0.1% and the percent survival ([1]; 5 mM) was 0.01%. For the same molecule, the “Concentration required to achieve an SLE Score of 0.3” value (HSV-1 strain McKrae) was 33.3 mM and the “Concentration required to achieve an SLE Score of 0.2” value (HSV-1 strain RE) was 33.3 mM.
